Measurements from patent US20240116985A1, “STAPLED PEPTIDES AND METHODS THEREOF” (priority 2020, published 2024).
pIC50: −log10 of the molar value. ≈ marks a conversion by molar mass, not a printed value. Like-named read-outs stand apart in the source and are kept apart here.

Assays:
[1] = molecular target: T1, beta-catenin/TCF4 engagement (Homo sapiens, UniProt P35222); test: Nano-BRET target engagement assay (B-cat-Halo & TCF4-Luc in HEK293 cells); assay type: cell-based; details: read-out: NanoBRET Abs IC50
T1 construct: expressed in transfected cells; host or cells: HEK293
T1 sequence (P35222 1-781): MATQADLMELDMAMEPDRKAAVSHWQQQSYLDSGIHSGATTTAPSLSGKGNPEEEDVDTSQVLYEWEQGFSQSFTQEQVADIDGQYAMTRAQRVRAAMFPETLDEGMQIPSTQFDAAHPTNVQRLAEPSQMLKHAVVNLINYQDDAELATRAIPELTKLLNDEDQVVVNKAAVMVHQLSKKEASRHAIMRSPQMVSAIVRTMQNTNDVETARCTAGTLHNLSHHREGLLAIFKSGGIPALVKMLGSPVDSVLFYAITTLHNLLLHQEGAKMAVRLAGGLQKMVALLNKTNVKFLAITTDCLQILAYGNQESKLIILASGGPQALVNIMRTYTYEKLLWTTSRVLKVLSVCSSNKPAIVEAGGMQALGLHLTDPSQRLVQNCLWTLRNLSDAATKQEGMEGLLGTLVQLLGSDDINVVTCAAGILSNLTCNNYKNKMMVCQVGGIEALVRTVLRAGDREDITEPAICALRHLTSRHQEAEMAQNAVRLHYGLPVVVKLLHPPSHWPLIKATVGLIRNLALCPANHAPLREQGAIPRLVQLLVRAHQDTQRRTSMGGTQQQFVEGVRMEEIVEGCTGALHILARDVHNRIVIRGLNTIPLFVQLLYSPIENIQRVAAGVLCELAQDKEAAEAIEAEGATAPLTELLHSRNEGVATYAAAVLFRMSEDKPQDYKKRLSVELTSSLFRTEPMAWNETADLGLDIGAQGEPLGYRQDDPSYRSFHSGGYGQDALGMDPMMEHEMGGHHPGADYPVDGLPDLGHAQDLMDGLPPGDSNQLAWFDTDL

CHI Log D procedure = assay type: physicochemical; details: for chromatographic logD: pH 7.4, CHI Log D
[2] = molecular target: T2, full-length beta-Catenin (Uniprot ID P35222) (Homo sapiens, UniProt P35222); test: Fluorescence polarization IC50 (beta-catenin / 5FAM-TCF4 10-53 competition); assay type: binding
T2 construct: 10 nM full-length beta-Catenin (Uniprot ID P35222)
T2 sequence (P35222 1-781): T1 sequence (P35222 1-781)

Solubility in PBS = assay type: physicochemical
Summary of the method: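 The PBS solution was ultracentrifuged and the supernatant analyzed by HPLC. Its peak area was divided by that of a 50 μM peptide DMSO reference injection and multiplied by 50 uM to give solubility.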

CC(=O)N1CCC[C@]12CC=CCCCC1(CCCC=CCCCOC(=O)N3CC[C@@](C(=O)N[C@@H](Cc4ccsc4)C(=O)N[C@@H](Cc4csc5ccccc45)C(=O)N[C@@H](CCC(N)=O)C(N)=O)(C3)NC(=O)[C@H](CC(N)=O)NC(=O)[C@H](Cc3ccccc3)NC(=O)[C@H](CCCCNC(=O)C34CC5(C)CC(C)(CC(C)(C5)C3)C4)NC(=O)[C@H](C)NC(=O)[C@H](CC(=O)O)NC(=O)[C@H](CC(=O)O)NC1=O)NC(=O)[C@H](CC(C)(C)C)NC(=O)[C@H](CC(=O)O)NC2=O (stereo partly drawn) [I-900, Ac-PL3-Asp-Npg-B5-Asp-Asp-Ala-[Me3AdamantC]Lys-Phe-Asn-PyrS2-3Thi-BztA-Gln-NH2] gave a pIC50 [1] of less than 4.70, a chromatographic logD (CHI Log D procedure) of 2.74 and a pIC50 ([2]; read-out: beta-Catenin FP IC50) of 7.48. The Solubility (Solubility in PBS; Solubility (uM)) was 41 µM (≈ 89.4 µg/mL).

COc1ccccc1C[C@H](NC(=O)[C@]12CCN(C1)C(=O)OCCCC=CCCCC1(CCCC=CC[C@]3(CCCN3C(C)=O)C(=O)N[C@@H](CC(=O)O)C(=O)N[C@@H](CC3CCCCC3)C(=O)N1)C(=O)N[C@@H](CC(=O)O)C(=O)N[C@@H](CC(=O)O)C(=O)N[C@@H](C)C(=O)N[C@@H](C)C(=O)N[C@@H](Cc1ccccc1)C(=O)N[C@@H](CO)C(=O)N2)C(=O)N[C@@H](Cc1csc2ccccc12)C(=O)N[C@@H](CO)C(N)=O (stereo partly drawn) [I-1104, Ac-PL3-Asp-Cha-B5-Asp-Asp-Ala-Ala-Phe-Ser-PyrS2-2OMeF-BztA-Ser-NH2] showed a pIC50 [1] of 4.75, a chromatographic logD (CHI Log D procedure) of 2.38 and a pIC50 ([2]; read-out: beta-Catenin FP IC50) of 8.00. It also gave a Solubility (Solubility in PBS; Solubility (uM)) of 48 µM (≈ 91.2 µg/mL).

Molecule CC(=O)N1CCC[C@]12CC=CCCCC1(CCCC=CCCCOC(=O)N3CC[C@@](C(=O)N[C@@H](Cc4ccsc4)C(=O)N[C@@H](Cc4csc5ccccc45)C(=O)N[C@H](Cc4c[nH]cn4)C(N)=O)(C3)NC(=O)[C@H](CC(N)=O)NC(=O)[C@H](Cc3ccccc3)NC(=O)[C@H](C)NC(=O)[C@H](C)NC(=O)[C@H](CC(=O)O)NC(=O)[C@H](CC(=O)O)NC1=O)NC(=O)[C@H](CC(C)(C)C)NC(=O)[C@H](CC(=O)O)NC2=O (stereo partly drawn) [I-813, Ac-PL3-Asp-Npg-B5-Asp-Asp-Ala-Ala-Phe-Asn-PyrS2-3Thi-BztA-dHis-NH2] has a pIC50 [1] of 4.68, a chromatographic logD (CHI Log D procedure) of 2.17 and a pIC50 ([2]; read-out: beta-Catenin FP IC50) of 8.15. For the same molecule, the Solubility (Solubility in PBS; Solubility (uM)) was 28 µM (≈ 54 µg/mL).

Work on CC(=O)N1CCC[C@]12CC=CCCCC1(CCCC=CCCCOC(=O)N3CC[C@@](C(=O)N[C@@H](Cc4ccccc4)C(=O)N[C@@H](Cc4csc5ccccc45)C(=O)N[C@@H](CCC(N)=O)C(N)=O)(C3)NC(=O)[C@H](CO)NC(=O)[C@H](Cc3ccc(C(F)(F)F)cc3)NC(=O)[C@H](C)NC(=O)[C@H](C)NC(=O)[C@H](CC(=O)O)NC(=O)[C@H](CC(=O)O)NC1=O)NC(=O)[C@H](CC1CCCCC1)NC(=O)[C@H](CC(=O)O)NC2=O (stereo partly drawn) [I-1126, Ac-PL3-Asp-Cha-B5-Asp-Asp-Ala-Ala-4F3MeF-Ser-PyrS2-Phe-BztA-Gln-NH2] yielded a pIC50 [1] of 4.57, a chromatographic logD (CHI Log D procedure) of 2.42 and a pIC50 ([2]; read-out: beta-Catenin FP IC50) of 7.49. For the same molecule, the Solubility (Solubility in PBS; Solubility (uM)) was 49 µM (≈ 97 µg/mL).

Work on CC(=O)N1CCC[C@]12CC=CCCCC1(CCCC=CCCCOC(=O)N3CC[C@@](C(=O)N[C@@H](Cc4ccsc4)C(=O)N[C@@H](Cc4csc5ccccc45)C(=O)N[C@@H](Cc4c[nH]cn4)C(N)=O)(C3)NC(=O)[C@H](CCCNC(N)=O)NC(=O)[C@H](Cc3ccccc3)NC(=O)[C@H](C)NC(=O)[C@H](C)NC(=O)[C@H](CC(=O)O)NC(=O)[C@H](CC(=O)O)NC1=O)NC(=O)[C@H](CC(C)(C)C)NC(=O)[C@H](CC(=O)O)NC2=O (stereo partly drawn) [I-806, Ac-PL3-Asp-Npg-B5-Asp-Asp-Ala-Ala-Phe-Cit-PyrS2-3Thi-BztA-His-NH2] yielded a pIC50 [1] of 4.67, a chromatographic logD (CHI Log D procedure) of 2.04 and a pIC50 ([2]; read-out: beta-Catenin FP IC50) of 8.30. For the same molecule, the Solubility (Solubility in PBS; Solubility (uM)) was 37 µM (≈ 72.9 µg/mL).

In the case of CC(=O)N1CCC[C@]12CC=CCCCC1(CCCC=CCCCCOC(=O)N3CC[C@@](C(=O)N[C@@H](Cc4ccsc4)C(=O)N[C@@H](Cc4csc5ccccc45)C(=O)N[C@@H](CCC(N)=O)C(=O)N[C@@H](C)C(N)=O)(C3)NC(=O)[C@H](CC(N)=O)NC(=O)[C@H](Cc3ccccc3)NC(=O)[C@H](C)NC(=O)[C@H](C)NC(=O)[C@H](CC(=O)O)NC(=O)[C@H](CC(=O)O)NC1=O)NC(=O)[C@H](CC(C)(C)C)NC(=O)[C@H](CC(=O)O)NC2=O (stereo partly drawn) [I-826, Ac-PL3-Asp-Npg-B5-Asp-Asp-Ala-Ala-Phe-Asn-PyrS3-3Thi-BztA-Gln-Ala-NH2], the pIC50 [1] was 4.64, the “CHI Log D” value (CHI Log D procedure; pH 7.4) was 2.066 and the pIC50 ([2]; fluorescence polarization, beta-catenin, read-out: FP EC50) was 7.82. For the same molecule, the pIC50 ([2]; read-out: beta-Catenin FP IC50) was 7.82 and the “Solubility” value (Solubility in PBS) was 30 µM (≈ 60.1 µg/mL).
